The target of the test is T1, MdrA (rMdrA) (Brucella abortus, UniProt Q2YN99).
T1 construct: gene BAB1_0783
Particulars: 192 bp btaE promoter fragment, rMucR present, pH 7.4, room temperature; inhibitor of MdrA displacement activity; no direct binding measured.

T1 sequence (Q2YN99 1-199 limits assumed): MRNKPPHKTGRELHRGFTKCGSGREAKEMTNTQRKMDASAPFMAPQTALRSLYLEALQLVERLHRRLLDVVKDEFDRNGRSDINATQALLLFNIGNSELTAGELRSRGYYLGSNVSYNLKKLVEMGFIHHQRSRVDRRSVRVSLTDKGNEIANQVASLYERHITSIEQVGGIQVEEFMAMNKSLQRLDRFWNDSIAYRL

In the case of `C[C@H](CCC(=O)O)[C@H]1CC[C@H]2[C@@H]3CC[C@@H]4C[C@H](O)CC[C@]4(C)[C@H]3C[C@H](O)[C@]12C` [deoxycholate], the “EMSA, displacement of MucR from 32P-labelled btaE promoter DNA by rMdrA” value is on record as “MdrA can no longer displace MucR from the btaE promoter when deoxycholate”.

For the origin of these results see publication PMC10746212 (mBio, 2023).
